A word on the IC50: it is the concentration at which inhibition is half-maximal. By Km is commonly meant the concentration of substrate that gives half-maximal velocity.

For series [1], the target named is T1, human galectin-3 (Gal-3) (Homo sapiens, UniProt P17931).
T1 construct: gene LGALS3; N-terminal His6-tag (kept, used for detection), expressed in E. coli Rosetta (DE3) pLysS, IMAC purified
Put plainly: competitive enzyme-linked lectin assay, inhibition of Gal-3 binding to immobilized asialofetuin.

Substrate in series [2]: OC[C@H]1O[C@H](F)[C@H](O)[C@@H](O)[C@H]1O
Put plainly: discontinuous HPLC assay, glycosynthase reaction. Type of series: biochemical, Niallia circulans. To be noted: donor substrate, acceptor GalNAc(α1-EG3-azide fixed at 5 mM), 50 mM HEPES pH 7.2, 30 °C, text gives 0.22 mM for the donor, Fig. 2 legend prints 0.22 M and assigns it to panel b (acceptor).

T1 sequence (P17931 whole entry): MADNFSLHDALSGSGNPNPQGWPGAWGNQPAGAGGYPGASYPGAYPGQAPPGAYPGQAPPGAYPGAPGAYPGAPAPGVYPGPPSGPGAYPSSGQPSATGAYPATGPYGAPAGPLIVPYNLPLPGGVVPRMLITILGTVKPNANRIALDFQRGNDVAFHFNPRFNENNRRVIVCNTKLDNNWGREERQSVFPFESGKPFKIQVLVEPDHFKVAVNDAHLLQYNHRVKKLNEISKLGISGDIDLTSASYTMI

`CC(=O)N[C@H]1[C@@H](OCCOCCOCCN=[N+]=[N-])O[C@H](CO)[C@H](O)[C@@H]1O[C@@H]1O[C@H](CO)[C@H](O)[C@H](O)[C@H]1O` [compound 6, TF-antigen-azide] had a half-maximal inhibitory concentration (IC50) in series [1] of 1560 ± 92.6 µM.

B1: BgaC (β-galactosidase) (Niallia circulans; E233G) (protein)
chain: MSQLTYDDSFLLDGKEIRLLSGAMHYFRTVPEYWEDRLLKLKACGFNTVETYVAWNLHEPEEGQFVFEGIADIVRFIKTAEKVGLHVIVRPGPFICAEWEFGGFPYWLLTVPNIKLRCFNQPYLEKVDAYFDVLFERLRPLLSSNGGPIIALQIENEYGSFGNDQKYLQYLRDGIKKRVGNELLFTSDGPEPSMLSGGMIEGIFETVNFGSRAESAFAQLKQYQPNAPLMCMGFWHGWFDHWGEEHHTRSAESVVETLEEILKQNGSVNFYMAHGGTNFGFYNGANHNETDYQPTITSYDYDGLLTESGDVTEKFYAVRKVFEKYVDLPELNLPAPIPKRLFGKVKFTEHAGLLDSLHRISTPQKSEAPLPMEKYGQAYGFIVYETTIKGAYGKQALTVQDIHDRGQVYVNGEYVGIVERNRGCSRLVVELTEEESKLQIIVENMGRINYGPFVVDYKGITEGVRLGNQFLFDWTVYPLPLKDLSSLEFTADEVKENFPYFHKGILTVDKAADTFIDLSEWTKGVVFVNGHHLGRYWEIGPQQTLYVPAPFLQEGENEIILLELHKHHQSVTFVDTPVLGAIPKTP
notes: recombinant, plasmid pETDuet-1, E. coli BL21 (DE3), IMAC purified
As for B1, the Michaelis-Menten constant (Km) in series [2] is 220 µM.

These data come from article PMC7329766, “Synthesis of the Thomsen-Friedenreich-antigen (TF-antigen) and binding of Galectin-3 to TF-antigen presenting neo-glycoproteins” (Glycoconjugate Journal, 2020).
